The record followed here is patent US20220089609A1, “SUBSTITUTED QUINAZOLINONE DERIVATIVES AND THEIR USE AS POSITIVE ALLOSTERIC MODULATORS OF MGLUR4” (DOMAIN THERAPEUTICS, priority 2018, published 2022).

Counter-ions that a name gives are not always drawn. Bounds are passed on as bounds.

In this experiment the target is T1, human mGluR4 (hmGluR4) (Homo sapiens, UniProt Q14833).
T1 construct: expressed in transfected cells; host or cells: HEK-293 cells, transient co-transfection by electroporation
T1 sequence (Q14833 33-912): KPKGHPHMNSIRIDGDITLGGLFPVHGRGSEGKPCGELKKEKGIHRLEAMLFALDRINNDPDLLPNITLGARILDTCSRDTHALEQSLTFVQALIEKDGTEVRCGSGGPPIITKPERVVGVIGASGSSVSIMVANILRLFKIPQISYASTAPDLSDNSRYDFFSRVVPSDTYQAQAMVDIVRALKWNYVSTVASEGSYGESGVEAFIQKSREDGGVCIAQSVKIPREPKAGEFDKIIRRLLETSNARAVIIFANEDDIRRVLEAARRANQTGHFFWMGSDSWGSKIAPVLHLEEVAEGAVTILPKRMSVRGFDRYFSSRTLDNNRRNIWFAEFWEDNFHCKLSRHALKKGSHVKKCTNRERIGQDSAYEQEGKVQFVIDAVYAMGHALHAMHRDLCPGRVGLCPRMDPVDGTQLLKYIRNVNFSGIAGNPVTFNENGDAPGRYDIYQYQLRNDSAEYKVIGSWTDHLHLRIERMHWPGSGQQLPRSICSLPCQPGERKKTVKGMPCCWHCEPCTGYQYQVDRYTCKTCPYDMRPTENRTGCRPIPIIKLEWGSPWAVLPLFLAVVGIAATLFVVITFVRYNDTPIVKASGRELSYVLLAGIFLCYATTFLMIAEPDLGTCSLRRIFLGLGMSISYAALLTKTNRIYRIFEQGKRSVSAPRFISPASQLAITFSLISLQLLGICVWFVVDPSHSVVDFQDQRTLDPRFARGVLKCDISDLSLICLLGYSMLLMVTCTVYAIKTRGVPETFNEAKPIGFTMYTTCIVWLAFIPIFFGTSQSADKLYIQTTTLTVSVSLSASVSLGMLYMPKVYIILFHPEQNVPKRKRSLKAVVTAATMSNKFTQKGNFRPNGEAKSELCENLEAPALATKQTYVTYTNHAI
Briefly: Calcium assay EC50 determination, positive allosteric modulator activity on hmGluR4 transiently over-expressed in HEK-293 cells. The experiment is classed as cell-based. The note with it: PAM mode with EC20 glutamate; hmGluR4 in HEK-293 cells; intracellular calcium (Fluo4AM); read-out: mGluR4 positive allosteric modulator activity, half maximal effective concentration (EC50). On the procedure: Compounds are tested successively for their agonist and positive allosteric modulator activities on human mGluR4 (hmGluR4) transiently over-expressed in HEK-293 cells. Compounds exert agonist activity if, by themselves in absence of glutamate, they are able to activate hmGluR4; and they exert positive allosteric modulator activity if they increase the action of glutamate.
HEK-293 cells are maintained in Modified Eagle's Medium supplemented with 10% Foetal Calf Serum, 1% Penicillin/Streptomycin and 1% non-essential amino acids at 37° C./5% CO2.
Cells are co-transfected by electroporation with four DNA plasmids encoding hmGluR4, a chimeric G protein allowing redirection of the activation signal to intracellular calcium pathway, and glutamate transporters to decrease extracellular glutamate concentration so as to limit receptor desensitization. After transfection, cells are cultured for 24 h at 37° C./5% CO2.
Calcium Assay EC50 determination
Receptor activity is detected by changes in intracellular calcium measured using the fluorescent Ca^2+ sensitive dye, Fluo4AM (Molecular Probes).
On the day of the assay, culture medium is aspirated and replaced during 3 hours by medium without serum supplemented with 1% Glutamax, 1% Penicillin/Streptomycin and 1% non-essential amino acids. Then, cells are washed with freshly prepared buffer B (HBSS 1× (PAA), Hepes 20 mM, MgSO4-7H2O 1 mM, Na2CO3 3.3 mM, CaCl2-2H2O 1.3 mM, 0.1% BSA, Probenecid 2.5 mM) and loaded at 37° C. in 5% CO2 for 1.5 hours with buffer B containing 1 μM Fluo4AM, 0.1 mg/mL Pluronic Acid, 7 μg/mL Glutamate Pyruvate Transaminase and 2 mM sodium pyruvate. Afterwards cells are washed twice with buffer B. Then cells are detached using StemPro Accutase (Fisher Scientific), resuspended in buffer B and seeded in 384 well plate at a density of 30,000 cells per well. Addition of compounds and intracellular Ca^2+ measurements (excitation 485 nm, emission 525 nm) are performed by the fluorescence microplate reader FLIP^Tetra (Molecular Devices).
Agonist and positive allosteric modulator activities of compounds are consecutively evaluated on the same cell plate. Agonist activity is first tested during 10 minutes with the addition of compound alone on the cells. Then, cells are stimulated by an EC20 glutamate concentration and fluorescence is recorded for additional 3 minutes. EC20 glutamate concentration is the concentration giving 20% of the maximal glutamate response. Agonist or positive allosteric modulator activity(ies) are evaluated in comparison to basal signals evoked by buffer B or EC20 glutamate alone, respectively.
(In general: Calcium assays in cells follow changes in intracellular calcium, usually with a dye or a luminescent sensor.)

In the case of `Cc1cc(N2CCC3(CCOCC3)C2)cc2c(=O)[nH]c(-c3cc4ccsc4cn3)nc12` [Compound 93, 8-Methyl-6-(8-oxa-2-aza-spiro[4.5]dec-2-yl)-2-thieno[2,3-c]pyridin-5-yl-3H-quinazolin-4-one], the EC50 was no more than 100 nM.

As to `Cc1cc(NCC(C)(C)O)cc2c(=O)[nH]c(-c3cc4ccsc4cn3)nc12` [Compound 94, 6-(2-Hydroxy-2-methyl-propylamino)-8-methyl-2-thieno[2,3-c]pyridin-5-yl-3H-quinazolin-4-one], the EC50 lay in the range of 100 to 1000 nM.

Take `CC(=O)N1CCCC(CCOc2cc(C)c3nc(-c4cc5ccsc5cn4)[nH]c(=O)c3c2)C1` (centres unmarked) [Compound 96, 6-[2-(1-Acetyl-piperidin-3-yl)-ethoxy]-8-methyl-2-thieno[2,3-c]pyridin-5-yl-3H-quinazolin-4-one]: the EC50 is no more than 100 nM.

On to `CC(=O)N1CCN(CCOc2cc(C)c3nc(-c4cc5ccsc5cn4)[nH]c(=O)c3c2)CC1` [Compound 97, 6-[2-(4-acetyl-piperazin-1-yl)-ethoxy]-8-methyl-2-thieno[2,3-c]pyridin-5-yl-3H-quinazolin-4-one hydrochloride], for which the EC50 is 100 to 1000 nM.

With `Cc1cc(CCCN2CCOCC2)cc2c(=O)[nH]c(-c3cc4ccsc4cn3)nc12` [Compound 99, 8-Methyl-6-(3-morpholin-4-yl-propyl)-2-thieno[2,3-c]pyridin-5-yl-3H-quinazolin-4-one hydrochloride], the EC50 fell in the range of 100 to 1000 nM.

Regarding `Cc1cc(OCCCc2ccncc2)cc2c(=O)[nH]c(-c3cc(C(F)(F)F)ccn3)nc12` [Compound 101, 8-Methyl-6-(3-pyridin-4-yl-propoxy)-2-(4-trifluoromethyl-pyridin-2-yl)-3H-quinazolin-4-one hydrochloride], the EC50 fell in the range of 100 to 1000 nM.

As for `Cc1cc(OCC2CCOC2)cc2c(=O)[nH]c(-c3cc(C(F)(F)F)ccn3)nc12` (centres unmarked) [Compound 102, 8-Methyl-6-(tetrahydro-furan-3-ylmethoxy)-2-(4-trifluoromethyl-pyridin-2-yl)-3H-quinazolin-4-one], the EC50 was no more than 100 nM.

Regarding `CCC(=O)N1CC(Oc2cc(C)c3nc(-c4cc(C(F)(F)F)ccn4)[nH]c(=O)c3c2)C1` [Compound 103, 8-Methyl-6-(1-propionyl-azetidin-3-yloxy)-2-(4-trifluoromethyl-pyridin-2-yl)-3H-quinazolin-4-one], the EC50 lay in the range of 100 to 1000 nM.

On to `Cc1cc(OC2CCN(C3COC3)CC2)cc2c(=O)[nH]c(-c3cc(C(F)(F)F)ccn3)nc12` [Compound 104, 8-Methyl-6-(1-oxetan-3-yl-piperidin-4-yloxy)-2-(4-trifluoromethyl-pyridin-2-yl)-3H-quinazolin-4-one], for which the EC50 fell in the range of 100 to 1000 nM.

With `Cc1cc(N2CCC3(CCOCC3)CC2)cc2c(=O)[nH]c(-c3cc(C(F)(F)F)ccn3)nc12` [Compound 105, 8-Methyl-6-(3-oxa-9-aza-spiro[5.5]undec-9-yl)-2-(4-trifluoromethyl-pyridin-2-yl)-3H-quinazolin-4-one], the EC50 is no more than 100 nM.

As to `Cc1cc(OCCCc2ccncc2)cc2c(=O)[nH]c(-c3cc4cccn4cn3)nc12` [Compound 106, 8-methyl-6-(3-pyridin-4-yl-propoxy)-2-pyrrolo[1,2-c]pyrimidin-3-yl-3H-quinazolin-4-one hydrochloride], the EC50 was no more than 100 nM.

For `Cc1cc(OCC2CCOC2)cc2c(=O)[nH]c(-c3cc4cccn4cn3)nc12` (centres unmarked) [Compound 107, 8-methyl-2-pyrrolo[1,2-c]pyrimidin-3-yl-6-(tetrahydro-furan-3-ylmethoxy)-3H-quinazolin-4-one], the EC50 is no more than 100 nM.

With `Cc1cc(N2CCC3(CCOCC3)CC2)cc2c(=O)[nH]c(-c3cc4cccn4cn3)nc12` [Compound 108, 8-methyl-6-(3-oxa-9-aza-spiro[5.5]undec-9-yl)-2-pyrrolo[1,2-c]pyrimidin-3-yl-3H-quinazolin-4-one], the EC50 is no more than 100 nM.

With `Cc1cc(OC2CCN(C3COC3)CC2)cc2c(=O)[nH]c(-c3cc4cccn4cn3)nc12` [Compound 109, 8-methyl-6-(1-oxetan-3-yl-piperidin-4-yloxy)-2-pyrrolo[1,2-c]pyrimidin-3-yl-3H-quinazolin-4-one], the EC50 is no more than 100 nM.

Consider `Cc1cc(O[C@H](C)C2CCOCC2)cc2c(=O)[nH]c(-c3cc4ccsc4cn3)nc12` [Compound 110-R, R-8-Methyl-6-[1-(tetrahydro-pyran-4-yl)-ethoxy]-2-thieno[2,3-c]pyridin-5-yl-3H-quinazolin-4-one], for which the EC50 is no more than 100 nM.

`Cc1cc(O[C@H](C)C2CCOCC2)cc2c(=O)[nH]c(-c3cc(C(F)(F)F)ccn3)nc12` [Compound 111-R, R-8-Methyl-6-[1-(tetrahydro-pyran-4-yl)-ethoxy]-2-(4-trifluoromethyl-pyridin-2-yl)-3H-quinazolin-4-one]: the EC50 was in the range of 100 to 1000 nM.

Regarding `Cc1cc(N2CCC3(CCOCC3)CC2)nc2c(=O)[nH]c(-c3cc4ccsc4cn3)nc12` [Compound 113], the EC50 fell in the range of 100 to 1000 nM.

For `Cc1cc(CN2CCOCC2)cc2c(=O)[nH]c(-c3cc(C(F)(F)F)ccn3)nc12` [Compound 115, 8-methyl-6-(morpholinomethyl)-2-[4-(trifluoromethyl)-2-pyridyl]-3H-quinazolin-4-one hydrochloride], the EC50 was no more than 100 nM.

Take `Cc1cc(CCN2CCOCC2)cc2c(=O)[nH]c(-c3cc(C(F)(F)F)ccn3)nc12` [Compound 117, 8-methyl-6-(2-morpholinoethyl)-2-[4-(trifluoromethyl)-2-pyridyl]-3H-quinazolin-4-one hydrochloride]: the EC50 is no more than 100 nM.

Turning to `Cc1cc(CCN2CCCOCC2)cc2c(=O)[nH]c(-c3cnc4sccc4c3)nc12` [Compound 121, 8-Methyl-6-(2-[1,4]oxazepan-4-yl-ethyl)-2-thieno[2,3-b]pyridin-5-yl-3H-quinazolin-4-one hydrochloride], the EC50 was 100 to 1000 nM.

Regarding `Cc1cc(CCN2CCOCC2)cc2c(=O)[nH]c(-c3cc4cccn4cn3)nc12` [Compound 124, 8-Methyl-6-(2-morpholin-4-yl-ethyl)-2-pyrrolo[1,2-c]pyrimidin-3-yl-3H-quinazolin-4-one hydrochloride], the EC50 is no more than 100 nM.

For the compound `Cc1cc(CC(=O)N2CCOCC2)cc2c(=O)[nH]c(-c3cc4sccc4cn3)nc12` [Compound 126, 8-Methyl-6-(2-morpholino-2-oxoethyl)-2-(thieno[3,2-c]pyridin-6-yl)quinazolin-4(3H)-one], the EC50 is no more than 100 nM.

On to `Cc1cc(CN2CCN(C)CC2)cc2c(=O)[nH]c(-c3cc4ccsc4cn3)nc12` [Compound 132, 8-Methyl-6-[(4-methylpiperazin-1-yl)methyl]-2-thieno[2,3-c]pyridin-5-yl-3H-quinazolin-4-one dihydrochloride], for which the EC50 was in the range of 1000 to 10000 nM.

As to `Cc1cc(C(=O)N2CCOCC2)cc2c(=O)[nH]c(-c3cc4cccn4cn3)nc12` [Compound 135, 8-Methyl-6-(morpholine-4-carbonyl)-2-pyrrolo[1,2-c]pyrimidin-3-yl-3H-quinazolin-4-one], the EC50 was in the range of 100 to 1000 nM.

Turning to `Cc1cc(O[C@@H]2CC(=O)N(C)C2)cc2c(=O)[nH]c(-c3cc4sccc4cn3)nc12` [Compound 140-R, 8-Methyl-6-[(3R)-1-methyl-5-oxo-pyrrolidin-3-yl]oxy-2-thieno[3,2-c]pyridin-6-yl-3H-quinazolin-4-one], the EC50 was no more than 100 nM.

As for `Cc1cc(O[C@H]2CC(=O)N(C)C2)cc2c(=O)[nH]c(-c3cc4sccc4cn3)nc12` [Compound 140-S, 8-Methyl-6-[(3S)-1-methyl-5-oxo-pyrrolidin-3-yl]oxy-2-thieno[3,2-c]pyridin-6-yl-3H-quinazolin-4-one], the EC50 was no more than 100 nM.

Take `Cc1cc(CN2CCN(C)C(=O)C2)cc2c(=O)[nH]c(-c3cc4sccc4cn3)nc12` [Compound 147, 8-Methyl-6-[(4-methyl-3-oxo-piperazin-1-yl)methyl]-2-thieno[3,2-c]pyridin-6-yl-3H-quinazolin-4-one hydrochloride]: the EC50 is no more than 100 nM.

Consider `COC1CCN(Cc2cc(C)c3nc(-c4cc5sccc5cn4)[nH]c(=O)c3c2)CC1` [Compound 152, 6-[(4-Methoxy-1-piperidyl)methyl]-8-methyl-2-thieno[3,2-c]pyridin-6-yl-3H-quinazolin-4-one hydrochloride], for which the EC50 was no more than 100 nM.

Take `Cc1cc(CN2CCOC(C)(C)C2)cc2c(=O)[nH]c(-c3cc4sccc4cn3)nc12` [Compound 153, 6-[(2,2-Dimethylmorpholin-4-yl)methyl]-8-methyl-2-thieno[3,2-c]pyridin-6-yl-3H-quinazolin-4-one hydrochloride]: the EC50 was no more than 100 nM.
